Measured values as given in patent publication US8410178B2, “CIS 3,4-dihydroxy-2-(3-methylbutanoyl)-5-(3-methylbutyl)-4-(4-methylpentanoyl)cyclopent-2-en-1-derivatives, substantially enantiomerically pure compositions and methods” (KinDex Therapeutics, LLC, priority 2010, dated 2013).

Columns and labels:
THP-1 cells = assay: TNF-α- and LPS-mediated inflammatory factors in THP-1 cells; assay type: cell-based, human; conditions: TNF-α and LPS-induced, 50, 25, 12.5 and 3.125 μM
Experimental: The anti-inflammatory effect of (+)-KDT501 was evaluated in human monocytic THP-1 cells.
THP-1 cells (ATCC, Manassas, Va.) were maintained in RPMI1640 in the presence of 10% serum according to manufacturer's instructions. The cells were pre-incubated with (+)-KDT501 at varying concentrations (50, 25, 12.5 and 3.125 μM) for one hour, then stimulated with TNF-α(10 ng/ml; Sigma, St. Louis, Mo.) or E. coli LPS (1 μg/ml; Sigma, St. Louis, Mo.) overnight (16-20 hours). MMP-9 levels in the medium were measured using an ELISA kit (GE Healthcare, Piscataway, N.J.), and cytokines were assayed using a Milliplex MAP human cytokine/chemokine kit (Millipore, Billerica, Mass.). Analytes were quantified using a Luminex 100™ IS. Data were analyzed using a five-parameter logistic method.

PPARα = target: T1, PPARα (Homo sapiens, UniProt Q07869); assay: PPARα luciferase reporter assay; assay type: cell-based; conditions: reporter cells, 20 hours
T1 sequence (Q07869 1-468): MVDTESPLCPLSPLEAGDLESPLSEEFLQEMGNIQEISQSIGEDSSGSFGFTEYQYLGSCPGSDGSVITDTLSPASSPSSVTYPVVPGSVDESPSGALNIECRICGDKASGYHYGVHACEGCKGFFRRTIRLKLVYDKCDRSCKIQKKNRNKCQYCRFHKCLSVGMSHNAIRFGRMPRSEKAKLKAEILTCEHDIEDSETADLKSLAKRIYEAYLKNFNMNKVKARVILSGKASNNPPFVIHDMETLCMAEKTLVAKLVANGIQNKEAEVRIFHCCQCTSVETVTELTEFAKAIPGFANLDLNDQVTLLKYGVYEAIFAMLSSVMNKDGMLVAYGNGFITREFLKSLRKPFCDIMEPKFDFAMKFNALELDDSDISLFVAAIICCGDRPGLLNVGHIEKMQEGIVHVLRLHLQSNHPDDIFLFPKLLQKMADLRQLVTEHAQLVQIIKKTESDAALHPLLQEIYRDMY
Experimental: The functional effect of (+)-KDT501 on PPARα, PPARδ, and PPARγ activity was evaluated using a PPAR reporter assay (INDIGO Biosciences, PA). This assay utilizes non-human mammalian cells engineered to provide constitutive high level expression of PPARα, PPARδ, or PPARγ and containing a luciferase report gene specific to the appropriate PPAR. Following activation by agonist binding, PPAR induces expression of the luciferase reporter gene. Luciferase activity therefore provides a surrogate for measuring PPAR activity in agonist-treated cells.
Reporter cells were plated on a 96-well plate at 100 μL per well, and 100 μL of (+)-KDT501 at various final concentrations (25, 12.5, 6.25, 3.125, 1.56 and 0.78 μM) was added to each well. […] 0.1% DMSO was also used as a negative control for each assay. Plates are incubated for 20 hours in a humidified incubator at 37° C. and 5% CO2. After incubation, cell medium was discarded and the cells were treated with 100 μL of luciferase detection reagent for 15 minutes. Plates were analyzed using a luminometer (Victor2, Perkin Elmer). Average relative light unit (RLU) and standard deviation were analyzed using GraphPad Prism.

[1] = test system: Zucker diabetic fatty (ZDF) rats; assay: Glucose and triglyceride levels in a rat diabetes model; assay type: in vivo
Experimental: 64 six-week-old male Zucker diabetic fatty (ZDF) rats with glucose levels of 175-300 mg/dL were randomized and divided into eight dosing groups: 1) vehicle only (0.5% methylcellulose (w/v), 0.2% Tween 80 (w/v); negative control), 2) (+)-KDT501 25 mg/kg, 3) (+)-KDT501 50 mg/kg, 4) (+)-KDT501 100 mg/kg, 5) (+)-KDT501 200 mg/kg, 6) metformin 200 mg/kg (positive control), 7) metformin 200 mg/kg and (+)-KDT501 100 mg/kg, and 8) pioglitazone 30 mg/kg (positive control). Drugs were administered orally twice a day for 33 days.
Animals were weighed at randomization and once per week thereafter, with administration dosages calculated based on the most recent body weight measurements. Blood samples were collected by tail bleed three days prior to randomization, at randomization, and at days 15 and 29 after the start of treatment. These blood samples were used to perform whole blood glucose evaluations using a glucometer, as well as to measure blood triglyceride levels. Body composition was tested by qNMR on days 2 and 29 after the start of treatment. An oral glucose tolerance test (OGTT) was performed on days 31 and 32 after the start of treatment. Rats underwent an overnight fast prior to OGTT, and tail bleeds for glucose and insulin were performed pre-glucose bolus and at 15, 30, 60, 90, and 120 minutes post-glucose bolus. The glucose bolus was 2 g dextrose/kg of body weight. On day 33, a cardiac puncture was performed for PK analysis.

CC(C)CCC(=O)[C@@]1(O)C(O)=C(C(=O)CC(C)C)C(=O)[C@@H]1CCC(C)C.[K] [(+)-KDT501, (+)-(4S,5R)-3,4-dihydroxy-2-(3-methylbutanoyl)-5-(3-methylbutyl)-4-(4-methylpentanoyl)cyclopent-2-en-1-one potassium salt]
expression of IL-1β (THP-1 cells): inhibited | expression of MCP-1 (THP-1 cells): inhibited | expression of MIP-1α (THP-1 cells): inhibited | expression of MMP-9 (THP-1 cells): inhibited | expression of RANTES (THP-1 cells): inhibited | PPARα activity (PPARα): little or no effect | whole blood glucose levels ([1]; 200 mg/kg orally twice a day): significant decrease | triglyceride levels ([1]; 200 mg/kg orally twice a day, days 15 and 29): significant decrease | whole blood glucose levels ([1]; 25, 50, or 100 mg/kg orally twice a day): nearly the same as those observed in negative control rats
